Reference: patent US5994349A, “3-carboalkoxy-2, 3-dihydro-1H-phenothiazin-4[10H]-one derivatives” (priority 1997, dated 1999)
Where two headings read alike, the source gives them in different places.

Experiments:
[1] = tested on: pentylenetetrazol seizures; experiment: subcutaneous pentylenetetrazol (scMet) test, Phase I, mice ip; type: in vivo, male Carworth Farms No. 1 (CF1) mice; details: for responders at 10 mg/kg / responders at 30 mg/kg / responders at 100 mg/kg / responders at 300 mg/kg: Mus musculus
Protocol: (§1) Initial evaluations for anticonvulsant activity include phases I, VIA and VIB test procedures. These tests are performed intraperitoneally in male Carworth Farms No. 1 (CF1) mice, weighing 18-25 g (Phase I) or orally in male Sprague-Dawley rats, weighing 100-150 g (Phases VIA and VIB). The evaluation is based on three tests: maximal electroshock (MES), subcutaneous (scMet), and the rotorod test for neurological toxicity (Tox). (a) Anticonvulsant Screening Project, Antiepileptic Drug Development Program, National Institutes of Health, DHEW Publ (NIH)(U.S.) 1978, NIH 78-1093. (b) Porter, R. J.; Cereghino, J. J.; Gladding, G. D.; Hessie, B. J.; Kupferberg, H. J.; Scoville, B.; White, B. G. Antiepileptic drug development program. Cleveland Clin. Q. 1984, 51, 293-305. (c) Krall, R. L.; Penry, J. K.; White, B. G.; Kupferberg, H. J.; Swinyard, E. A. Antiepileptic drug development: II. Anticonvulsant drug screening. Epilepsia 1978, 19, 400-428. In the MES test, maximal electroshock seizures are elicited with a 60- cycle alternating current of 50 mA intensity (5-7 times that necessary to elicit minimal electroshock seizures) delivered via corneal electrodes for 0.2 seconds. A drop of 0.9% saline is placed on the eye prior to application of the electrodes in order to […]. Abolition of the hind limb tonic extension component of the seizure is defined as protection and results are expressed as the number of animals protected/the number of animals tested.
In the sc MET test, eighty-five mg/kg of pentylenetetrazol, which induces seizures in more than 95% of mice, is administered as a 0.5% solution subcutaneously in the posterior midline. The animal is observed for 30 minutes. Failure to observe even a threshold seizure (a single episode of clonic spasms of at least 5 seconds duration) is defined as protection and the results are expressed as the number of animals protected/ the number of animals tested. […]

[2] = tested on: maximal electroshock seizures; experiment: maximal electroshock (MES) test, Phase I, mice ip; type: in vivo, male Carworth Farms No. 1 (CF1) mice; details: Mus musculus
Protocol: as §1
In phase I, compounds are suspended in 0.5% aqueous methylcellulose and are administered intraperitoneally at three dosage levels (30, 100, and 300 mg/kg) with anticonvulsant activity and motor impairment noted 30 min and 4 h (and in some cases 2 h and 6 h) after administration.

neurotoxicity (rotorod) [3] = experiment: rotorod test for neurological toxicity (Tox), Phase I, mice ip; type: in vivo, male Carworth Farms No. 1 (CF1) mice
Protocol: as §1
The rotorod test is used to evaluate neurotoxicity. The animal is placed on a 1 inch diameter knurled plastic rod rotating at 6 rpm. Normal mice can remain on a rod rotating at this speed indefinitely. […]

[4] = tested on: maximal electroshock seizures; experiment: maximal electroshock (MES) test, oral rat (Phase VIA/VIB); type: in vivo, male Sprague-Dawley rats; details: 30 mg/kg
Protocol: as §1
(§2) To differentiate the results between different rodent species, 4b (X=H), as well as 4a (R=H), 4e (R=Cl), 4f (R=Cl) and 4i (R=CH3) are subsequently evaluated for oral (po) activity in the rat (Phase VIA or VIB).

neurotoxicity (rotorod) [5] = experiment: rotorod toxicity, oral rat (Phase VIA/VIB); type: in vivo, male Sprague-Dawley rats; details: rat oral, 30 mg/kg
Protocol: as §1
The rotorod test is used to evaluate neurotoxicity. The animal is placed on a 1 inch diameter knurled plastic rod rotating at 6 rpm. Normal mice can remain on a rod rotating at this speed indefinitely.
as §2

[6] = 0.5 h, mice ip, 30 min, read-out: scMet 30 min
[7] = mice ip, 4 h, read-out: scMet 4 h
[8] = 4 h, read-out: MES 4 h (converted)
[9] = 0.5 h, 30 min, read-out: MES 30 min (converted)

Structure (SMILES) | responders at 30 mg/kg [1, 6] | responders at 100 mg/kg [1, 6] | responders at 30 mg/kg [1, 7] | responders at 100 mg/kg [1, 7] | responders at 30 mg/kg ([2]; 4 h, read-out: MES 4 h) | responders at 100 mg/kg [2, 8] | responders at 30 mg/kg [2, 9] | responders at 100 mg/kg [2, 9] | Tox 30 min (neurotoxicity (rotorod) [3]; 30 mg/kg) | Tox 4 h (neurotoxicity (rotorod) [3]; 30 mg/kg) | Tox 30 min (neurotoxicity (rotorod) [3]; 100 mg/kg) | Tox 4 h (neurotoxicity (rotorod) [3]; 100 mg/kg) | responders at 30 mg/kg ([4]; 0.25 h) | responders at 30 mg/kg ([4]; 1.00 h) | responders at 30 mg/kg ([4]; 0.5 h, 0.50 h) | Tox (neurotoxicity (rotorod) [5]; 0.25 h) | Tox (neurotoxicity (rotorod) [5]; 0.50 h) | Tox (neurotoxicity (rotorod) [5]; 1.00 h) | other results
COC(=O)[C@@H]1C(=O)C2=C(C[C@H]1C)Nc1ccc(Br)cc1S2 (relative stereo) [Compound 4j, 7-Bromo-3-carbomethoxy-2-methyl-2,3-dihydro-1H-phenothiazin-4[10H]-one] | 0% | 0% | 0% | 0% | 0% | 0% | 33.3% | 100% | 0/8 | 0/4 | 0/4 | 0/2 | 50% | 50% | 75% | 0/4 | 0/4 | 0/2 | responders at 10 mg/kg ([1]; 0.5 h, mice ip, 10 mg/kg, 30 min, read-out: scMet 30 min): 0%; responders at 10 mg/kg ([1]; mice ip, 10 mg/kg, 4 h, read-out: scMet 4 h): 0%; observation in scMet test (footnote g) ([1]; mice ip, 10 and 30 mg/kg, 30 min): Continuous seizure activity; observation in scMet test (footnote h) ([1]; mouse, in vivo, ip, 10 mg/kg): Death following continuous seizure; responders at 10 mg/kg ([2]; 4 h, read-out: MES 4 h): 0%; responders at 10 mg/kg ([2]; 0.5 h, 30 min, read-out: MES 30 min): 0%; Tox 30 min (neurotoxicity (rotorod) [3]; 10 mg/kg): 0/4; Tox 4 h (neurotoxicity (rotorod) [3]; 10 mg/kg): 0/2
CCOC(=O)[C@@H]1C(=O)C2=C(C[C@H]1C)Nc1ccc(C)cc1S2 (relative stereo) [Compound 4i, 3-Carbethoxy-2,7-dimethyl-2,3-dihydro-1H-phenothiazin-4[10H]-one] | 0% | 0% | 0% | 0% | 0% | 0% | 50% | 33.3% | 0/4 | 0/2 | 0/8 | 0/4 | 0% | 75% | 50% | 0/4 | 0/4 | 0/4 | responders at 300 mg/kg ([1]; 0.5 h, mice ip, 30 min, read-out: scMet 30 min (converted)): 0%; responders at 300 mg/kg ([1]; mice ip, 4 h, read-out: scMet 4 h (converted)): 0%; responders at 300 mg/kg [2, 8]: 100%; responders at 300 mg/kg [2, 9]: 100%; Tox 30 min (neurotoxicity (rotorod) [3]; 300 mg/kg): 0/4; Tox 4 h (neurotoxicity (rotorod) [3]; 300 mg/kg): 0/2; responders at 30 mg/kg ([4]; 2.00 h): 25%; responders at 30 mg/kg ([4]; 4.00 h): 0%; Tox (neurotoxicity (rotorod) [5]; 2.00 h): 0/4; Tox (neurotoxicity (rotorod) [5]; 4.00 h): 0/4
